Tests used:
MCP-I = MCP-I cytokine elevation in serum; format: in vivo; conditions: cirRNA (SEQ ID NO: 1) LNPs, mice
Method: 6-8 week old, female BALB/C mice were injected with 0.5 mg*kg-1 of RNA LNPs by intravenous injection. At 2 and 24 hours post injection, animals were bled and sera concentrations of MCP-I were determined by an immunoassay (Luminex).

[1] = RNA encapsulation efficacy by Quant-IT Ribogreen kit; format: physicochemical; conditions: for Encapsulation Efficiency %: LNP with cirRNA (SEQ ID NO: 1); for Encapsulation Efficiency: LNP with mRNA (SEQ ID NO: 2)
Outline: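 Ribogreen read-out: encapsulation = 100% − (signal of intact RNA-LNPs / signal with Triton X-100). Particles: ionizable lipid:DSPC:Chol:DMG-PEG2000 50:10:38.5:1.5, ionizable lipid:ribonucleotide 15 or 6, final lipid 1.5–6 mM, PBS-dialyzed.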

RAW 264.7 cells [2] = experiment: In vitro expression of firefly-luciferase, RAW 264.7; format: cell-based
Outline: (§1)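 Both cell lines receive RNA-LNPs carrying firefly-luciferase RNA at 100 ng/mL. Lysis follows washing at 72 h post-transfection, and luciferase activity is then quantified on a luminometer using a commercial luciferase assay reagent.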

BALB/C mice [3] = experiment: Local tolerance determination by footpad injection; format: in vivo; conditions: cirRNA (SEQ ID NO: 1) LNP, 0.175 mg*kg-1 subcutaneous into the footpad, 24 hours post minus prior
Method: 6-8 week old, female BALB/C mice were injected with 0.175 mg*kg-1 RNA LNPs by subcutaneous injection into the footpad. Prior to, and 24 hours post injections, injected footpad thickness was determined by a caliper.

Hep G2 cells [4] = experiment: In vitro toxicity (CellTiter-Glo cell viability), Hep G2; format: cell-based;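 also: percent of untreated cells luminescence signal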
Outline: (§2)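 Cells were transfected with RNA-LNPs at 1 μg/mL and, 72 hours later, viability was measured by CellTiter-Glo luminescence. Values are cell viability calculated from the luminescence signal.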

Hep G2 cells [5] = experiment: In vitro expression of firefly-luciferase, Hep G2; format: cell-based
Outline: as §1

BALB/C mice [6] = experiment: In vivo expression, whole-body luminescence (IVIS)
Method: 6-8 week old, female BALB/C mice were injected with 0.05 mg*kg-1 of RNA-LNPs encoding for firefly-luciferase by intravenous injection. At 6 hours post injection, animals were intraperitoneally injected with 15 mg/ml of Luciferin substrate and whole-body luminescence was determined by a bioluminescent in vivo imaging system (IVIS).

RAW 264.7 cells [7] = experiment: In vitro toxicity (CellTiter-Glo cell viability), RAW 264.7; format: cell-based;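 also: percent of untreated cells luminescence signal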
Outline: as §2

[8] = LNP zeta potential (Zetasizer); format: physicochemical
Outline: (§3)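 LNPs of ionizable lipid/DSPC/cholesterol/DMG-PEG 2000 (50:10:38.5:1.5) made by microfluidic mixing of luciferase circRNA or mRNA in pH 4.5 acetate with lipids in ethanol (3:1, 12 ml/min), ionizable lipid:nucleotide 15 or 6, then dialyzed against PBS. Size, PDI (DLS) and zeta potential on Zetasizer; encapsulation by Ribogreen ± Triton X-100.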

[9] = tested on: Aspartate Aminotransferase (AST); experiment: Liver enzyme elevation in serum, AST; format: in vivo; conditions: cirRNA (SEQ ID NO: 1) LNPs, BALB/C mice, intravenous 0.5 MPK
Method: (§4) 6-8 week old, female BALB/C mice were injected with 0.5 mg*kg-1 of RNA LNPs by intravenous injection. At 2 and 24 hours post injection, animals were bled and sera concentrations of Alanine Aminotransferase (ALT) and Aspartate Aminotransferase (AST) were determined by a blood chemistry analyzer.

[10] = LNP size and polydispersity index (PDI) by dynamic light scattering; format: physicochemical; conditions: for Size: in nm (unit assumed)
Outline: as §3

[11] = tested on: Alanine Aminotransferase (ALT); experiment: Liver enzyme elevation in serum, ALT; format: in vivo; conditions: cirRNA (SEQ ID NO: 1) LNPs, BALB/C mice, intravenous 0.5 MPK
Method: as §4

[12] = cirRNA (SEQ ID NO: 1) LNPs, firefly-luciferase luminescence, RAW 264.7 cells
[13] = mRNA (SEQ ID NO: 2) LNP, 100 ng/mL, 72 hours post transfection, luciferase activity
[14] = cirRNA (SEQ ID NO: 1) LNPs, Hep G2 cells
[15] = mRNA (SEQ ID NO: 2) LNP, 1 μg/mL, 72 hours post transfection
[16] = cirRNA (SEQ ID NO: 1) LNPs, firefly-luciferase luminescence, Hep G2 cells
[17] = cirRNA (SEQ ID NO: 1) LNPs, BALB/C mice
[18] = mRNA (SEQ ID NO: 2) LNP, 0.05 mg*kg-1 intravenous, 6 hours post injection
[19] = cirRNA (SEQ ID NO: 1) LNPs, RAW 264.7 cells

| Compound | MCP-I in Sera 2 hours After 0.5 MPK Injection (MCP-I) | MCP-I in Sera 24 hours After 0.5 MPK Injection (MCP-I) | Encapsulation Efficiency % [1] | Encapsulation Efficiency [1] | In vitro Expression RAW (RAW 264.7 cells [2]; [12]) | In vitro Expression RAW (RAW 264.7 cells [2]; [13]) | Footpad Thickness (24 h−0 h, mm) (BALB/C mice [3]) | In vitro Viability HepG2 (Hep G2 cells [4]; [14]) | In vitro Viability HepG2 (Hep G2 cells [4]; [15]) | In vitro Expression HepG2 (Hep G2 cells [5]; [16]) | In vitro Expression HepG2 (Hep G2 cells [5]; [13]) | In vivo Expression (Whole Body) (BALB/C mice [6]; [17]) | In vivo Expression (Whole Body) (BALB/C mice [6]; [18]) | In vitro Viability RAW (RAW 264.7 cells [7]; [19]) | In vitro Viability RAW (RAW 264.7 cells [7]; [15]) | Zeta (mV) ([8]; LNP with cirRNA (SEQ ID NO: 1)) | Zeta (mV) ([8]; LNP with mRNA (SEQ ID NO: 2)) | AST in Sera (IU/L) 2 hours After 0.5 MPK Injection [9] | AST in Sera (IU/L) 24 hours After 0.5 MPK Injection [9] | PDI ([10]; LNP with cirRNA (SEQ ID NO: 1)) | also measured |
| --- | --- | --- | --- | --- | --- | --- | --- | --- | --- | --- | --- | --- | --- | --- | --- | --- | --- | --- | --- | --- | --- |
| CCCCC/C=C\CCOC(=O)CCCCCN(CCCCCC(=O)OCC(CCCCCCCC)CCCCCCCCCC)CCOC(=O)NCCN1CCCCC1 (centres unmarked) [Lipid 245] | 2543.33 pg/mL | 342.29 pg/mL | 86% | 85.53% | 2.68E+05 | 3.81E+06 | 0.68 mm | 88% | 118% | 7.24E+05 | 4.35E+06 | 2.99E+08 | 1.18E+08 | 94% | 89% | −5.02 mV | 2.004 mV | 387.00 IU/L | 187.67 IU/L | 0.12 | Size ([10]; LNP with cirRNA (SEQ ID NO: 1)): 99.5; PDI ([10]; LNP with mRNA (SEQ ID NO: 2)): 0.1109; Size ([10]; LNP with mRNA (SEQ ID NO: 2)): 108.8; ALT in Sera (IU/L) 2 hours After 0.5 MPK Injection [11]: 136.50 IU/L; ALT in Sera (IU/L) 24 hours After 0.5 MPK Injection [11]: 107.33 IU/L |
| CCCCC/C=C\C/C=C\CCCCCCCCN(CCCCCCCC(=O)OC(CCCCCCCC)CCCCCCCC)CCCOC(=O)NCCN(C)C [Lipid 270] | 4192.67 pg/mL | 564.30 pg/mL | 95% | 94.52% | 9.33E+06 | 3.27E+06 | 0.65 mm | 95% | 116% | 9.88E+06 | 2.31E+07 | 9.90E+07 | 3.45E+08 | 120% | 96% | 3.201 mV | 6.102 mV | 477.67 IU/L | 220.00 IU/L | 0.258 | Size ([10]; LNP with cirRNA (SEQ ID NO: 1)): 66.18; PDI ([10]; LNP with mRNA (SEQ ID NO: 2)): 0.1592; Size ([10]; LNP with mRNA (SEQ ID NO: 2)): 101.7; ALT in Sera (IU/L) 2 hours After 0.5 MPK Injection [11]: 253.00 IU/L; ALT in Sera (IU/L) 24 hours After 0.5 MPK Injection [11]: 79.00 IU/L |
| CCCCC/C=C\C/C=C\CCCCCCCCN(CCCCCCCC(=O)OC(CCCCCCCC)CCCCCCCC)CCCOC(=O)NCc1ncc[nH]1 [Lipid 271] | 1986.67 pg/mL | 522.62 pg/mL | 93% | 94.51% | 1.59E+06 | 6.06E+06 | 0.40 mm | 91% | 117% | 5.51E+06 | 3.69E+06 | 8.99E+07 | 8.51E+08 | 121% | 85% | 0.345 mV | 0.8825 mV | 200.67 IU/L | 231.33 IU/L | 0.2068 | Size ([10]; LNP with cirRNA (SEQ ID NO: 1)): 98.73; PDI ([10]; LNP with mRNA (SEQ ID NO: 2)): 0.1219; Size ([10]; LNP with mRNA (SEQ ID NO: 2)): 97.34; ALT in Sera (IU/L) 2 hours After 0.5 MPK Injection [11]: 128.33 IU/L; ALT in Sera (IU/L) 24 hours After 0.5 MPK Injection [11]: 114.67 IU/L |
| CCCCC/C=C\C/C=C\CCCCCCCCN(CCCCCCCC(=O)OC(CCCCCCCC)CCCCCCCC)CCCOC(=O)NCCCn1ccnc1 [Lipid 276] | 1659.21 pg/mL | 120.48 pg/mL | 96% | 94.50% | 1.07E+06 | 8.16E+05 | 0.51 mm | 95% | 115% | 9.80E+05 | 3.01E+05 | 1.88E+08 | 1.26E+07 | 117% | 83% | −0.02248 mV | 0.8258 mV | 247.33 IU/L | 89.67 IU/L | 0.1464 | Size ([10]; LNP with cirRNA (SEQ ID NO: 1)): 64.42; PDI ([10]; LNP with mRNA (SEQ ID NO: 2)): 0.07602; Size ([10]; LNP with mRNA (SEQ ID NO: 2)): 88.07; ALT in Sera (IU/L) 2 hours After 0.5 MPK Injection [11]: 247.67 IU/L; ALT in Sera (IU/L) 24 hours After 0.5 MPK Injection [11]: 52.00 IU/L |
| CCCCC/C=C\C/C=C\CCCCCCCCN(CCCCCCCC(=O)OC(CCCCCCCC)CCCCCCCC)CCCOC(=O)NCCN1CCCCC1 [Lipid 278] | 1815.67 pg/mL | 1070.74 pg/mL | 96% | 86.19% | 8.67E+06 | 6.01E+06 | 0.63 mm | 91% | 100% | 2.22E+07 | 3.75E+07 | 1.19E+08 | 2.18E+08 | 132% | 83% | 0.06032 mV | 0.3567 mV | 275.33 IU/L | 322.67 IU/L | 0.1471 | Size ([10]; LNP with cirRNA (SEQ ID NO: 1)): 91.92; PDI ([10]; LNP with mRNA (SEQ ID NO: 2)): 0.1831; Size ([10]; LNP with mRNA (SEQ ID NO: 2)): 119; ALT in Sera (IU/L) 2 hours After 0.5 MPK Injection [11]: 177.33 IU/L; ALT in Sera (IU/L) 24 hours After 0.5 MPK Injection [11]: 102.50 IU/L |

— US12691070B2, “Cationic lipids and preparation method thereof” (RiboX Therapeutics HK Limited, priority 2023, dated 2026)
